In patent publication US10294226B2, “Small molecule inhibitors of the JAK family of kinases” (Janssen Pharmaceutica NV, priority 2016, dated 2019):

Experiments:
P-gp (MDR1) = assay: MDCK-MDR1 permeability assay; type: in vitro ADME; settings: dog, MDCK-MDR1, pH 7.4, with elacridar 2 μM, @ 5 μM, apical to basolateral, with P-gp inhibitor elacridar (2 μM); read-out: MDCK-MDR1 P^eapp(A-B)
Method: Permeability measurements were conducted according to the Cyprotex protocol using the MDCK-MDR1 cell line obtained from the NIH (Rockville, Md., USA). […] The cells in this assay form a cohesive sheet of a single cell layer filing the surface area of the culture dish, also known as a confluent monolayer, and on day four the test compound was added to the apical side of the membrane and the transport of the compound across the monolayer was monitored over a time period of 60 min.
Test compounds were dissolved in DMSO at a concentration of 10 mM. The dosing solutions were prepared by diluting test compound with assay buffer (Hanks Balanced Salt Solution), pH 7.4, at a final concentration of 5 μM. For assessment of apical to basolateral (“A-B”) permeability, buffer was removed from the apical compartment and replaced with test compound dosing solution with or without the permeability glycoprotein (“PgP”, “P-gP”, “Pgp” or “P-gp”) inhibitor elacridar (2 μM). For assessment of basolateral to apical (“B-A”) permeability, buffer was removed from the companion plate and replaced with test compound dosing solution. Incubations were carried out in duplicate at 37° C. in an atmosphere of 5% CO2 with a relative humidity of 95%. […] After incubation for 60 minutes, apical and basolateral samples were diluted and test compounds quantified by LC/MS/MS using an 8-point calibration in the range 0.0039 to 3 μM with appropriate dilution of the samples (receiver dilution factor=1; donor and C0 dilution factor=10). The permeability coefficient (Papp) for each compound was calculated from the following equation: Papp=(dQ/dt)/(C0×S), where dQ/dt is the rate of permeation of the drug across the cells, C0 is the donor compartment concentration at time zero, and S is the area of the cell monolayer.
The percent recovery was measured for all incubation conditions.
Papp(A-B) gives an indication of permeation extent across the cells in this assay, which is envisaged to model the transcellular transport across Pgp-expressing cells, such as Pgp-expressing gastrointestinal tract cells.
The integrity of each monolayer was monitored by examining the permeation of lucifer yellow by fluorimetric analysis.

IFNα pSTAT4 (JAK1/TYK2) = IFNα pSTAT4 (JAK1/TYK2) cellular assay, AlphaLISA in PBMCs; type: cell-based; settings: PBMC, IFNα 4 ng/mL
Method: The AlphaLISA assay (based on Alpha Technology from PerkinElmer) was performed by first plating freshly thawed PBMCs (Biological Specialty Corporation) in 384-well plates at 100,000 cells per 6 μL per well in DMEM (Dulbecco's Modified Eagle Medium) containing 10% FBS (fetal bovine serum) and 1,000 I.U./mL penicillin and 1,000 μg/mL streptomycin. The cells were then treated with 2 μL/well of compounds diluted in DMSO at half-log titrated concentrations, with a highest test concentration of 10 μM and 0.5% final DMSO concentration, for thirty minutes at 37° C. Next, the cells were stimulated with 2 μL/well of IFNα (PBL Assay Science Cat. No. 11101-2) at 4 ng/mL for thirty minutes at 37° C. The cellular reactions were terminated by the addition of 2 μL/well of lysis buffer (PerkinElmer Cat. No. ALSU-PST4-A10K) followed by an incubation of five minutes at room temperature. 4 μL/well of acceptor mix (PerkinElmer Cat. No. ALSU-PST4-A10K) was added to the cells and incubated in the dark for one hour at room temperature. Then, 4 μL/well of donor mix (PerkinElmer Cat. No. ALSU-PST4-A10K) was added to the cells and incubated in the dark overnight at room temperature. Finally, the plates were read on a PerkinElmer EnVision for detection of the time-resolved fluorescence signal. The percentage of IFNα-dependent pSTAT4 inhibition was determined at the compound test concentrations; and for each compound, a dose curve was generated and the IC50 was calculated. Compound IC50 was calculated by nonlinear regression, sigmoidal dose response analysis of the half-log dilution titration curve of the compound concentration vs. Alpha signal. The term “Alpha” is defined in the immediately preceding cellular assay description.

[1] = tested on: GM-CSF pSTAT5 (JAK2/JAK2); assay: GM-CSF pSTAT5 (JAK2/JAK2) cellular assay, AlphaLISA in PBMCs; type: cell-based; settings: PBMC, GM-CSF 11 pg/mL
Method: The AlphaLISA assay (based on Alpha Technology from PerkinElmer) was performed by first plating freshly thawed PBMCs (Biological Specialty Corporation) in 384-well plates at 30,000 cells per 4 μL per well in HBSS containing 0.1% IgG-free, protease-free BSA (Jackson ImmunoResearch Cat. No. 001-000-161). The cells were then treated with 2 μL/well of compounds diluted in DMSO at half-log titrated concentrations, with a highest test concentration of 10 μM and 0.5% final DMSO concentration, for thirty minutes at 37° C. Next, the cells were stimulated with 2 μL/well of GM-CSF (R&D Systems Cat. No. 215-GM-050) at 11 pg/mL for fifteen minutes at 37° C. The cellular reactions were terminated by the addition of 2 μL/well of lysis buffer (PerkinElmer Cat. No. ALSU-PST5-A10K) followed by an incubation of five minutes at room temperature. 5 μL/well of acceptor mix (PerkinElmer Cat. No. ALSU-PST5-A10K) was added to the cells and incubated in the dark for one hour at room temperature. Then, 5 μL/well of donor mix (PerkinElmer Cat. No. ALSU-PST5-A10K) was added to the cells and incubated in the dark overnight at room temperature. Finally, the plates were read on a PerkinElmer EnVision for detection of the time-resolved fluorescence signal. The percentage of GM-CSF-dependent pSTAT5 inhibition was determined at the compound test concentrations; and for each compound, a dose curve was generated and the IC50 was calculated. Compound IC50 was calculated by nonlinear regression, sigmoidal dose response analysis of the half-log dilution titration curve of the compound concentration vs. Alpha signal. The term “Alpha” is defined in the IL-2 pSTAT5 (JAK1/JAK3) cellular assay description.

[2] = pH 6.5

Row | Compound | Papp A→B at 60 min, 5 μM (P-gp (MDR1)) [×10⁻⁶ cm/s] | IC50 (IFNα pSTAT4 (JAK1/TYK2)) [nM] | IC50 [1] [nM] | SIF solubility [2] [µM]
1 | CC(C)(O)CNC(=O)Cc1nc2cnc3[nH]ccc3c2n1[C@H]1CC[C@H](CC#N)CC1 [Ex. 1, 2-(1-((1r,4r)-4-(Cyanomethyl)cyclohexyl)-1,6-dihydroimidazo[4,5-d]pyrrolo[2,3-b]pyridin-2-yl)-N-(2-hydroxy-2-methylpropyl)acetamide] | 1.1 | 59.5 | 83.9 | 
2 | N#CC[C@H]1CC[C@H](n2c(-c3c[nH]cn3)nc3cnc4[nH]ccc4c32)CC1 [Ex. 2, 2-((1r,4r)-4-(2-(1H-Imidazol-4-yl)imidazo[4,5-d]pyrrolo[2,3-b]pyridin-1(6H)-yl)cyclohexyl)acetonitrile] | 1.6 | 20.8 | 61 | >400
3 | N#CC[C@H]1CC[C@H](n2c(CC(=O)NCC3CC3)nc3cnc4[nH]ccc4c32)CC1 [Ex. 3, 2-(1-((1r,4r)-4-(Cyanomethyl)cyclohexyl)-1,6-dihydroimidazo[4,5-d]pyrrolo[2,3-b]pyridin-2-yl)-N-(cyclopropylmethyl)acetamide] | 2.3 | 10.1 | 21.9 | >400
4 | N#CCCNC(=O)Cc1nc2cnc3[nH]ccc3c2n1[C@H]1CC[C@H](CC#N)CC1 [Ex. 4, N-(2-Cyanoethyl)-2-(1-((1r,4r)-4-(cyanomethyl)cyclohexyl)-1,6-dihydroimidazo[4,5-d]pyrrolo[2,3-b]pyridin-2-yl)acetamide] | 0.5 | 64.7 | 119 | >400
5 | N#CC[C@H]1CC[C@H](n2c(CC(=O)NC3CCOCC3)nc3cnc4[nH]ccc4c32)CC1 [Ex. 5, 2-(1-((1r,4r)-4-(Cyanomethyl)cyclohexyl)-1,6-dihydroimidazo[4,5-d]pyrrolo[2,3-b]pyridin-2-yl)-N-(tetrahydro-2H-pyran-4-yl)acetamide] | 0.7 | 38.1 | 28.9 | 
6 | N#CC[C@H]1CC[C@H](n2c(CC(=O)NCC3CCOCC3)nc3cnc4[nH]ccc4c32)CC1 [Ex. 6, 2-(1-((1r,4r)-4-(Cyanomethyl)cyclohexyl)-1,6-dihydroimidazo[4,5-d]pyrrolo[2,3-b]pyridin-2-yl)-N-((tetrahydro-2H-pyran-4-yl)methyl)acetamide] | 0.9 | 39.4 | 25.1 | >400
7 | CC(C)(C#N)CNC(=O)Cc1nc2cnc3[nH]ccc3c2n1[C@H]1CC[C@H](CC#N)CC1 [Ex. 7, N-(2-Cyano-2-methylpropyl)-2-(1-((1r,4r)-4-(cyanomethyl)cyclohexyl)-1,6-dihydroimidazo[4,5-d]pyrrolo[2,3-b]pyridin-2-yl)acetamide] | 1.2 | 38.5 | 67.3 | 
8 | N#CC[C@H]1CC[C@H](n2c(CC(=O)NCC3(O)CCC3)nc3cnc4[nH]ccc4c32)CC1 [Ex. 8, 2-(1-((1r,4r)-4-(Cyanomethyl)cyclohexyl)-1,6-dihydroimidazo[4,5-d]pyrrolo[2,3-b]pyridin-2-yl)-N-((1-hydroxycyclobutyl)methyl)acetamide] | 0.5 | 42.8 | 33.8 | >400
9 | N#CCC12CCC(NC(=O)Cc3nc4cnc5[nH]ccc5c4n3[C@H]3CC[C@H](CC#N)CC3)(CC1)C2 [Ex. 10, N-(4-(Cyanomethyl)bicyclo[2.2.1]heptan-1-yl)-2-(1-((1r, 4r)-4-(cyanomethyl)cyclohexyl)-1,6-dihydroimidazo[4,5-d]pyrrolo[2,3-b]pyridin-2-yl)acetamide] | 1.1 | 40.4 | 44.6 | 
10 | N#CC[C@H]1CC[C@H](n2c(CC(=O)NCC3(O)CC3)nc3cnc4[nH]ccc4c32)CC1 [Ex. 12, 2-(1-((1r,4r)-4-(Cyanomethyl)cyclohexyl)-1,6-dihydroimidazo[4,5-d]pyrrolo[2,3-b]pyridin-2-yl)-N-((1-hydroxycyclopropyl)methyl)acetamide] | 0.6 | 81.4 | 75.4 | >400
